Measured values reported in patent publication US8153359B2, “Toxicity assay based on human blastocyst-derived stem cells and progenitor cells” (Cellartis AB, priority 2006, dated 2012).

Experiments:
[1] = system: hBS cells, hBS MPs and hFFs; assay: Cytotoxicity test, comparison over all cell types (hBS cells, progenitor cells, hFF); conditions: FIG. 3
hBS cells [2] = assay: Cytotoxicity test, viability by ATP content (CellTiterGlo), hBS cells; assay type: cell-based, human; conditions: hBS cells set to 1
hBS MPs [3] = assay: Cytotoxicity test, viability by ATP content, hBS MPs (progenitor cells); assay type: cell-based, human; conditions: relative to hBS cells = 1
[4] = system: human foreskin fibroblasts (hFFs); assay: Cytotoxicity test, viability by ATP content, hFFs; assay type: cell-based; conditions: relative to hBS cells = 1
hBS cells [5] = assay: Cytotoxicity test, viability by Resazurin reduction, hBS cells; assay type: cell-based, human; conditions: hBS cells set to 1
hBS MPs [6] = assay: Cytotoxicity test, viability by Resazurin reduction, hBS MPs (progenitor cells); assay type: cell-based, human; conditions: relative to hBS cells = 1
[7] = system: human foreskin fibroblasts (hFFs); assay: Cytotoxicity test, viability by Resazurin reduction, hFFs; assay type: cell-based; conditions: relative to hBS cells = 1

SMILES	toxic reaction [1]	Ratio between the IC50 values measured using the ATP assay, hBS cells (hBS cells [2])	Ratio between the IC50 values measured using the ATP assay, Progenitors (hBS MPs [3])	Ratio between the IC50 values measured using the ATP assay, hFF [4]	Ratio between the IC50 values measured using the Rezasurin assay, hBS cells (hBS cells [5])	Ratio between the IC50 values measured using the Rezasurin assay, Progenitors (hBS MPs [6])	Ratio between the IC50 values measured using the Rezasurin assay, hFF [7]
O=C1NS(=O)(=O)c2ccccc21.[Na] [Saccharin, Sodium Saccharin]	no toxic reaction						
O=c1[nH]cc(F)c(=O)[nH]1 [5-FU, 5-Fluorouracil]		1	2	7	1	1	2.5
CC1=C(/C=C/C(C)=C/C=C/C(C)=C/C(=O)O)C(C)(C)CCC1 [ATRA, all-trans retinoic acid]		1	0.0001	>4	1	0.0005	>6
CC1=C(/C=C/C(C)=C/C=C/C(C)=C\C(=O)O)C(C)(C)CCC1 [13CRA, 13-cis retinoic acid]		1	0.000025	>6	1	0.000001	>7
